According to patent US9458137B2, “Substituted indol-5-ol derivatives and their therapeutical applications” (NantBioScience, Inc., priority 2012, dated 2016):

Columns and labels:
Test in all cases: Kinase panel activity
Format in all cases: biochemical
Conditions in all cases: 0.1 μM, ATP Km
[1] = molecular target: ALK4(h) (Homo sapiens, UniProt P36896)
Description: (§1) The effect of NTW-3475 on kinase activity was tested for a wide range of kinases and is shown in Table 2: Summary Sheet, Activity % ATP Concentration: Km

[2] = molecular target: T1, Aurora-A(h) (Homo sapiens, UniProt O14965)
T1 construct: purchased Millipore (KinaseProfiler service)
Description: as §1

[3] = molecular target: BTK(h) (Homo sapiens, UniProt Q06187)
Description: as §1

[4] = molecular target: Bmx(h) (Homo sapiens, UniProt P51813)
Description: as §1

[5] = molecular target: BrSK1(h) (Homo sapiens, UniProt Q8TDC3)
Description: as §1

[6] = molecular target: CDK9/cyclin T1(h) (Homo sapiens, UniProt P50750)
Description: as §1

[7] = molecular target: CHK2(II57T)(h) (Homo sapiens, UniProt O96017, I157T)
Description: as §1

[8] = molecular target: CK1δ(h) (Homo sapiens, UniProt P48730)
Description: as §1

[9] = molecular target: CSK(h) (Homo sapiens, UniProt P41240)
Description: as §1

[10] = molecular target: DAPK2(h) (Homo sapiens, UniProt Q9UIK4)
DAPK2(h), sequence (Q9UIK4 whole entry): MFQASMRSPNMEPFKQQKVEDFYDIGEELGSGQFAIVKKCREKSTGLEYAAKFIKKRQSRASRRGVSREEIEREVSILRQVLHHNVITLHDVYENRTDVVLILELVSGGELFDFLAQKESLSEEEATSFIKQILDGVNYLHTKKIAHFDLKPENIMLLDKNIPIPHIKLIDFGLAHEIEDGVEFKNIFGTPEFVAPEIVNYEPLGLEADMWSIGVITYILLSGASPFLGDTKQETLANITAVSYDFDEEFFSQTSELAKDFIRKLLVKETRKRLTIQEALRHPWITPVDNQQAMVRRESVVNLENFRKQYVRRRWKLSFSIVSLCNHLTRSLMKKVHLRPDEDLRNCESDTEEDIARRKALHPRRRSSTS
Description: as §1

[11] = molecular target: T2, EphA1(h) (Homo sapiens, UniProt P21709)
T2 construct: purchased Millipore (KinaseProfiler service)
Description: as §1

[12] = molecular target: T3, EphA8(h) (Homo sapiens, UniProt P29322)
T3 construct: purchased Millipore (KinaseProfiler service)
T3 sequence (P29322 28-1005): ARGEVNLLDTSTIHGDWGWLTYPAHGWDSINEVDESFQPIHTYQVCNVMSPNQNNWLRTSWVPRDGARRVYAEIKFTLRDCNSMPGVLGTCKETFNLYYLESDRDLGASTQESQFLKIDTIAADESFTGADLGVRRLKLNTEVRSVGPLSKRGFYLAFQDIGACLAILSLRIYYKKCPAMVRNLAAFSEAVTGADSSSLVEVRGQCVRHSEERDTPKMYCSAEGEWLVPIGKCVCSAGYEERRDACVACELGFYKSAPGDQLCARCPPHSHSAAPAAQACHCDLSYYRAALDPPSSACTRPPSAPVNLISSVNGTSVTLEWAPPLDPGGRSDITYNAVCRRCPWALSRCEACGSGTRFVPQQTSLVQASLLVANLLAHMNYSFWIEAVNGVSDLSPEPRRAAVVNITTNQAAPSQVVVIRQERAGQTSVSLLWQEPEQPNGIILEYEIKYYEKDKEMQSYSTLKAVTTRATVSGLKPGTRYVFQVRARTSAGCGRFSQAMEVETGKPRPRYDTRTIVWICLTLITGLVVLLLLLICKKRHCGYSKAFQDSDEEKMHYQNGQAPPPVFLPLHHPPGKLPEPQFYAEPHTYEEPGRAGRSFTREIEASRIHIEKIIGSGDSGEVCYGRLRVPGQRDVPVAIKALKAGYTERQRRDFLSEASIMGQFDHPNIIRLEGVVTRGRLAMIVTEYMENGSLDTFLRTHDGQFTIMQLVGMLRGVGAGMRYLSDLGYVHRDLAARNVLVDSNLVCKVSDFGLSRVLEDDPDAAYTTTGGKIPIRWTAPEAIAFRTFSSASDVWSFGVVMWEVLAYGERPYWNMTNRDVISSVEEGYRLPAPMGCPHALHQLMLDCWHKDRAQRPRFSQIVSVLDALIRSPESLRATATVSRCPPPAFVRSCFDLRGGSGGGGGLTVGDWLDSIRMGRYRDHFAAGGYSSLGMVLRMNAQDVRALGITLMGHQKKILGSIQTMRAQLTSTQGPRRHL
Description: as §1

[13] = molecular target: T4, EphB4(h) (Homo sapiens, UniProt P54760)
T4 construct: purchased Millipore (KinaseProfiler service)
Description: as §1

[14] = molecular target: F1t3(h) (Homo sapiens, UniProt P36888)
Description: as §1

[15] = molecular target: Hck(h) activated (Homo sapiens, UniProt P08631)
Description: as §1

[16] = molecular target: JAK3(h) (Homo sapiens, UniProt P52333)
Description: as §1

[17] = molecular target: T5, MAPKAP-K2(h) (Homo sapiens, UniProt P49137)
T5 construct: purchased Millipore (KinaseProfiler service)
T5 sequence (P49137 whole entry): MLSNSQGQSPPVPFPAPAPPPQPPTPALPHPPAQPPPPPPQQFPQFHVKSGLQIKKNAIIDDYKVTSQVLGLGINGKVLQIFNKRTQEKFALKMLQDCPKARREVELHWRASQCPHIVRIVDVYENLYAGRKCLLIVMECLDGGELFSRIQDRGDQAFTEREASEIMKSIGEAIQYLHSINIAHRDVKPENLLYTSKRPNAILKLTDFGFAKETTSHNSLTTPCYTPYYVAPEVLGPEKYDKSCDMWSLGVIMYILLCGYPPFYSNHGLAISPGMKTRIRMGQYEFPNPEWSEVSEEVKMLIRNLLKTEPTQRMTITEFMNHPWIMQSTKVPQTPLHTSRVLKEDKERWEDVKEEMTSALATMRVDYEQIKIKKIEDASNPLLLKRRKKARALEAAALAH
Description: as §1

[18] = molecular target: T6, MARK1(h) (Homo sapiens, UniProt Q9P0L2)
T6 construct: purchased Millipore (KinaseProfiler service)
Description: as §1

[19] = molecular target: T7, MLK1(h) (Homo sapiens, UniProt P80192)
T7 construct: purchased Millipore (KinaseProfiler service)
T7 sequence (P80192 whole entry): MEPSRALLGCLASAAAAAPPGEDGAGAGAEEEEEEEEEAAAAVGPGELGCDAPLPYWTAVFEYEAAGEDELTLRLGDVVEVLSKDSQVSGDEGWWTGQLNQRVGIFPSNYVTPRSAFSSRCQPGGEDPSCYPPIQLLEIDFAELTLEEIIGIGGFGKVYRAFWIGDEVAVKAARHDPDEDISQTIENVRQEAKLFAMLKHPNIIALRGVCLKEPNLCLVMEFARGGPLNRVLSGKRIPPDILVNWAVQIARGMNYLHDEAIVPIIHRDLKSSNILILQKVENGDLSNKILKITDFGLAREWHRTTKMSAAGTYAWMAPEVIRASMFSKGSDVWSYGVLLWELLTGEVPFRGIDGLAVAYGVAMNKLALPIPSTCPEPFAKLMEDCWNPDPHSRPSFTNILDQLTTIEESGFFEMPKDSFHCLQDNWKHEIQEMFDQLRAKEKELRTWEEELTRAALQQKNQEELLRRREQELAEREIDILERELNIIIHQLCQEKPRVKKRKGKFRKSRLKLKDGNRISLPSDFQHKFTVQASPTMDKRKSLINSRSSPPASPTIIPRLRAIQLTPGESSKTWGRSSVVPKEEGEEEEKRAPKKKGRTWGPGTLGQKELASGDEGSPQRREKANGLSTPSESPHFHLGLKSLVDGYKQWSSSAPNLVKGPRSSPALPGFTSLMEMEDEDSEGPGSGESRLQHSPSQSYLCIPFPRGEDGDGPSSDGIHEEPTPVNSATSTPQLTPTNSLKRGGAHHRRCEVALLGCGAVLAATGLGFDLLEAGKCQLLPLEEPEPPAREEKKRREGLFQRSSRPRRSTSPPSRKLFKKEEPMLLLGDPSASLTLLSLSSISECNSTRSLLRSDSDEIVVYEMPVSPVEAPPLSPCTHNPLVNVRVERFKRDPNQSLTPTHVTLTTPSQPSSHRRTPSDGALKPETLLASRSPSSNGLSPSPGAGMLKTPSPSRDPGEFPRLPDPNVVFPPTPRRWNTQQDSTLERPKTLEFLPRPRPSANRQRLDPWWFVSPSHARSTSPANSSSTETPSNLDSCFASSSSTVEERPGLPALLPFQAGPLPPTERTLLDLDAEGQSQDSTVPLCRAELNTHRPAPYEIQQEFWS
Description: as §1

[20] = molecular target: T8, MRCKβ(h) (Homo sapiens, UniProt Q9Y5S2)
T8 construct: purchased Millipore (KinaseProfiler service)
Description: as §1

[21] = molecular target: T9, MSK2(h) (Homo sapiens, UniProt O75676)
T9 construct: purchased Millipore (KinaseProfiler service)
Description: as §1

[22] = molecular target: T10, Mnk2(h) (Homo sapiens, UniProt Q9HBH9)
T10 construct: purchased Millipore (KinaseProfiler service)
Description: as §1

[23] = molecular target: NEK7(h) (Homo sapiens, UniProt Q8TDX7)
Description: as §1

[24] = molecular target: PAK2(h) (Homo sapiens, UniProt Q13177)
PAK2(h), sequence (Q13177 whole entry): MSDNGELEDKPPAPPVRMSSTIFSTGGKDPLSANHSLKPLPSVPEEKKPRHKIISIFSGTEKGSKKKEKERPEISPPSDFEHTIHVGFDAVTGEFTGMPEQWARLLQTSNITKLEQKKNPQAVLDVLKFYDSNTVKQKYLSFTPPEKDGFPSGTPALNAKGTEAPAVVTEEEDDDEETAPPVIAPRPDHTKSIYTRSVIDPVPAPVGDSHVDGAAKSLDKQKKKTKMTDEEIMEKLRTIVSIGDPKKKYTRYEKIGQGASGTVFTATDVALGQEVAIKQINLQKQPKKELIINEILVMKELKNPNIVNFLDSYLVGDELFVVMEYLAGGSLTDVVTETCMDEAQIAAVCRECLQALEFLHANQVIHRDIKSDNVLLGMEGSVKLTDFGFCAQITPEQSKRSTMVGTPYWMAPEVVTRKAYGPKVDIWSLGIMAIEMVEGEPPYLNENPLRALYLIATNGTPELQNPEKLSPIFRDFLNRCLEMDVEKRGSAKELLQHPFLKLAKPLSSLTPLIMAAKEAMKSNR
Description: as §1

[25] = molecular target: PAR-1Bα(h) (Homo sapiens, UniProt Q7KZI7)
Description: as §1

[26] = molecular target: PKGIβ(h) (Homo sapiens, UniProt Q13976)
Description: as §1

[27] = molecular target: T11, SAPK2b(h) (Homo sapiens, UniProt Q15759)
T11 construct: purchased Millipore (KinaseProfiler service)
Description: as §1

[28] = molecular target: T12, SAPK4(h) (Homo sapiens, UniProt O15264)
T12 construct: purchased Millipore (KinaseProfiler service)
T12 sequence (O15264 whole entry): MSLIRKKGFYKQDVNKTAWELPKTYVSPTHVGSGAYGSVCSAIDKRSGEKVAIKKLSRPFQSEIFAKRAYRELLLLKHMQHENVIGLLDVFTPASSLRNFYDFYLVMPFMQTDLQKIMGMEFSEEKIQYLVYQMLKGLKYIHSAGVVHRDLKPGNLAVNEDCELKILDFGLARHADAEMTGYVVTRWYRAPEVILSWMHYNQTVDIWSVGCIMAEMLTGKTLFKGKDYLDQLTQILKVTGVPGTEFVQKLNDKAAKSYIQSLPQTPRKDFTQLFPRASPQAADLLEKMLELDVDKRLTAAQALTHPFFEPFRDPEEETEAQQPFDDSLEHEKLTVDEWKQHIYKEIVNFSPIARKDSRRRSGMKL
Description: as §1

[29] = molecular target: T13, SIK(h) (Homo sapiens, UniProt P57059)
T13 construct: purchased Millipore (KinaseProfiler service)
Description: as §1

[30] = molecular target: T14, Syk(h) (Homo sapiens, UniProt P43405)
T14 construct: purchased Millipore (KinaseProfiler service)
Description: as §1

[31] = molecular target: T15, TBK1(h) (Homo sapiens, UniProt Q9UHD2)
T15 construct: purchased Millipore (KinaseProfiler service)
Description: as §1

[32] = molecular target: T16, TSSK1(h) (Homo sapiens, UniProt Q9BXA7)
T16 construct: purchased Millipore (KinaseProfiler service)
Description: as §1

[33] = molecular target: T17, Tec(h) activated (Homo sapiens, UniProt P42680)
T17 construct: purchased Millipore (KinaseProfiler service)
Description: as §1

[34] = molecular target: ULK3(h) (Homo sapiens, UniProt Q6PHR2)
ULK3(h), sequence (Q6PHR2 whole entry): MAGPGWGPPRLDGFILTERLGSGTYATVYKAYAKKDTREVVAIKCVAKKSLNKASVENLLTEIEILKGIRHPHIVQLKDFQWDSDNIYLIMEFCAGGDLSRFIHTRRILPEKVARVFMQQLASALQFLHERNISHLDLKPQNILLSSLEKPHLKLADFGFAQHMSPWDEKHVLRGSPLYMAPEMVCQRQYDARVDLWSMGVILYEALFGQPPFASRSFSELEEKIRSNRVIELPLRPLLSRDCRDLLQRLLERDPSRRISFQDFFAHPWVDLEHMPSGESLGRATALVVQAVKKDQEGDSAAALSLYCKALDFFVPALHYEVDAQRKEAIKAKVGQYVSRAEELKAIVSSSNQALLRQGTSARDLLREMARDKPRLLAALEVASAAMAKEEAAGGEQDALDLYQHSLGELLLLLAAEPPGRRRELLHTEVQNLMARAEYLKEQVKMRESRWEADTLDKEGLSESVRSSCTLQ
Description: as §1

[35] = molecular target: VRK2(h) (Homo sapiens, UniProt Q86Y07)
Description: as §1

[36] = molecular target: WNK2(h) (Homo sapiens, UniProt Q9Y3S1)
Description: as §1

[37] = molecular target: Yes(h) (Homo sapiens, UniProt P07947)
Yes(h), sequence (P07947 whole entry): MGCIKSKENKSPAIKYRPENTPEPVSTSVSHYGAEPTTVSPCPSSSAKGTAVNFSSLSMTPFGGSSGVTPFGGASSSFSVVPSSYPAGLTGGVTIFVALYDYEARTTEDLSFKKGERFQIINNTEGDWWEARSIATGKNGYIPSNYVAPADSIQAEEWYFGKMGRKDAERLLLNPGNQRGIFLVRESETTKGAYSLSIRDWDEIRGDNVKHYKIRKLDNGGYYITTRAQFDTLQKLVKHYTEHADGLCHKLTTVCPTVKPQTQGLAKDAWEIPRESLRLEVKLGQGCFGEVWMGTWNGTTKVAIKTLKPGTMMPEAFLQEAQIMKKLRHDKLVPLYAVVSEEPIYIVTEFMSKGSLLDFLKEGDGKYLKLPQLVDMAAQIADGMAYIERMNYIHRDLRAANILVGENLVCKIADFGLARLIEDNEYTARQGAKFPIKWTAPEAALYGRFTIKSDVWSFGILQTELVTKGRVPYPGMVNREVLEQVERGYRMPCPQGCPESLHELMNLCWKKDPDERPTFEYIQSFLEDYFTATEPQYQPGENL
Description: as §1

[38] = molecular target: cKit(D816V)(h) (Homo sapiens, UniProt P10721, D816V)
Description: as §1

[39] = molecular target: cKit(V654A)(h) (Homo sapiens, UniProt P10721, V654A)
Description: as §1

[40] = molecular target: cKit(h) (Homo sapiens, UniProt P10721)
Description: as §1

Compound: Cc1cc2c(F)c(Oc3nc(Nc4cc(C5CC5)[nH]n4)cc(N4CCN(C)CC4)n3)cc(F)c2[nH]1 [NTW-3475]
- Activity % [1]: 28%
- Activity % [2]: 7%
- Activity % [3]: 37%
- Activity % [4]: 1%
- Activity % [5]: 53%
- Activity % [6]: 52%
- Activity % [7]: 112%
- Activity % [8]: 91%
- Activity % [9]: 75%
- Activity % [10]: 106%
- Activity % [11]: 12%
- Activity % [12]: 16%
- Activity % [13]: 14%
- Activity % [14]: 1%
- Activity % [15]: 12%
- Activity % [16]: 3%
- Activity % [17]: 105%
- Activity % [18]: 28%
- Activity % [19]: 7%
- Activity % [20]: 108%
- Activity % [21]: 90%
- Activity % [22]: 92%
- Activity % [23]: 98%
- Activity % [24]: 65%
- Activity % [25]: 15%
- Activity % [26]: 111%
- Activity % [27]: 103%
- Activity % [28]: 91%
- Activity % [29]: 33%
- Activity % [30]: 84%
- Activity % [31]: 28%
- Activity % [32]: 86%
- Activity % [33]: 52%
- Activity % [34]: 11%
- Activity % [35]: 99%
- Activity % [36]: 99%
- Activity % [37]: 0%
- Activity % [38]: 63%
- Activity % [39]: 32%
- Activity % [40]: 84%
